Data on 9 molecules can be found in PubChem BioAssay (NCI).

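Method: 48-hour compound exposure of cells in 96-well plates, five concentrations, linear interpolation of endpoints. Here, GI50 denotes the concentration required for 50% inhibition of growth. At the TGI there is no net growth.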 Bounds are passed on as bounds.

Some test systems named below: K-562 leukemia; EKVX NSCLC; HOP-62 NSCLC; IGROV1 ovarian; SNB-19 CNS; NCI-H23 lung; UACC-257 melanoma; SN12C renal.
Holding throughout (experiment): NCI tumour cell line growth inhibition, 48 h

On to `CC(C)(C#N)c1cc(C(=O)Nc2cc(Nc3ncccc3-c3ncnc4nc[nH]c34)ccc2F)cc(C(F)(F)F)c1`, for which the GI50 in the assay on K-562 leukemia is 0.345 µM; in the assay with HOP-62 NSCLC, 0.463 µM; in the assay with IGROV1 ovarian it was 0.521 µM; with SNB-19 CNS, more than 2.15 µM; in the assay with NCI-H23 lung, 0.514 µM; in the assay on UACC-257 melanoma it was 0.112 µM. The GI50 in the assay with SN12C renal was 1.42 µM. For the same molecule, the TGI is more than 10 µM in the assay on K-562 leukemia; more than 6.56 µM in the assay on EKVX NSCLC; more than 10 µM in the assay on HOP-62 NSCLC; more than 2.59 µM with IGROV1 ovarian; more than 10 µM in the assay on SNB-19 CNS; more than 4.14 µM in the assay with NCI-H23 lung. Also, the TGI was more than 3.21 µM in the assay on UACC-257 melanoma and more than 10 µM in the assay on SN12C renal.
As for `CS(=O)(=O)Nc1ccc(N=Cc2c(O)[nH]c3ccccc23)cc1`, the GI50 in the assay with K-562 leukemia, with EKVX NSCLC, in the assay with HOP-62 NSCLC, with IGROV1 ovarian, in the assay with SNB-19 CNS and in the assay on NCI-H23 lung was more than 25 µM throughout. Besides, the GI50 in the assay with UACC-257 melanoma and with SN12C renal was more than 25 µM throughout. Besides, the TGI with K-562 leukemia, with EKVX NSCLC, in the assay with HOP-62 NSCLC, in the assay with IGROV1 ovarian, in the assay on SNB-19 CNS and with NCI-H23 lung was more than 25 µM in each case. Besides, the TGI in the assay with UACC-257 melanoma and with SN12C renal was more than 25 µM in each case.
For `COc1ccc2c(c1)C(C)Cc1c(Cl)nc(C)nc1N2C` (stereo not given), the GI50 in the assay with K-562 leukemia was 0.713 µM; in the assay with EKVX NSCLC, 3.01 µM; in the assay with HOP-62 NSCLC it was 2.22 µM; in the assay on IGROV1 ovarian, 4.41 µM; in the assay on SNB-19 CNS, 3.48 µM; in the assay on NCI-H23 lung, 3.48 µM. The figures for the GI50 with UACC-257 melanoma and with SN12C renal were 13.1 µM and 7.22 µM, respectively. Besides, the TGI is more than 100 µM with K-562 leukemia; 30.7 µM in the assay with EKVX NSCLC; 36.3 µM in the assay with HOP-62 NSCLC; more than 100 µM in the assay with IGROV1 ovarian; 29.5 µM with SNB-19 CNS; 37.2 µM with NCI-H23 lung. The TGI with UACC-257 melanoma came out at 37.8 µM; in the assay with SN12C renal, 25.1 µM.
Consider `CCCCCCCOc1c(OC)cc(C2CC(=O)Nc3c2c(C)nn3-c2nc3ccccc3[nH]2)cc1OC` (stereo not given), for which the GI50 was 4.23 µM with K-562 leukemia; 2.54 µM in the assay on EKVX NSCLC; 3.09 µM with HOP-62 NSCLC; 2.74 µM with IGROV1 ovarian; 3.93 µM in the assay on SNB-19 CNS; 2.95 µM in the assay with NCI-H23 lung. The GI50 is 4.03 µM with UACC-257 melanoma and 3.48 µM with SN12C renal. In addition, the TGI with K-562 leukemia is more than 100 µM; in the assay on EKVX NSCLC, 8.15 µM; in the assay on HOP-62 NSCLC it was 14.2 µM; with IGROV1 ovarian it was 10.1 µM; with SNB-19 CNS it was more than 100 µM; in the assay with NCI-H23 lung it was 9.96 µM. The TGI in the assay with UACC-257 melanoma and with SN12C renal was more than 100 µM in each case.
Consider `CCOC(=O)c1nc(Nc2ccc(Cl)cc2)c2ccccc2n1`, for which the GI50 in the assay on K-562 leukemia is 46 µM; in the assay on EKVX NSCLC, 13 µM; in the assay with HOP-62 NSCLC it was 16.4 µM; in the assay on IGROV1 ovarian, 10.7 µM; with SNB-19 CNS, 13.5 µM; with NCI-H23 lung, 10.7 µM. The GI50 with UACC-257 melanoma was 13 µM; in the assay on SN12C renal it was 11.5 µM. For the same molecule, the TGI with K-562 leukemia is more than 50 µM; in the assay on EKVX NSCLC, 44.1 µM; with HOP-62 NSCLC, more than 50 µM; in the assay with IGROV1 ovarian, 26 µM; in the assay on SNB-19 CNS, 43.2 µM; with NCI-H23 lung, 18.9 µM. Also, the TGI in the assay with UACC-257 melanoma worked out at 30.6 µM; in the assay on SN12C renal, 27.4 µM.
`O=C(c1cccnc1)c1cc(-c2ccccn2)c(=O)n2ccccc12`: the GI50 in the assay on K-562 leukemia, in the assay with EKVX NSCLC, in the assay with HOP-62 NSCLC, with IGROV1 ovarian, in the assay with SNB-19 CNS and with NCI-H23 lung was more than 100 µM throughout. The GI50 in the assay on UACC-257 melanoma and in the assay with SN12C renal was more than 100 µM each time. Besides, the TGI with K-562 leukemia, in the assay with EKVX NSCLC, with HOP-62 NSCLC, with IGROV1 ovarian, with SNB-19 CNS and in the assay with NCI-H23 lung was more than 100 µM in each case. Besides, the TGI in the assay on UACC-257 melanoma and in the assay with SN12C renal was more than 100 µM each time.
As for `COc1ccc(-c2nn(-c3cccc(Cl)c3)cc2-c2cc(-c3ccccc3)nc(N)n2)cc1`, the GI50 is 1.92 µM in the assay on K-562 leukemia; 2.32 µM in the assay with EKVX NSCLC; 2.5 µM in the assay on HOP-62 NSCLC; 4.2 µM in the assay with IGROV1 ovarian; 12.7 µM with SNB-19 CNS; 2.83 µM with NCI-H23 lung. Moreover, the GI50 with UACC-257 melanoma was 2.58 µM; with SN12C renal, 1.9 µM. The TGI in the assay on K-562 leukemia stood at 5.37 µM; in the assay with EKVX NSCLC, 15 µM; in the assay on HOP-62 NSCLC, 6.41 µM; in the assay with IGROV1 ovarian, 16.5 µM; in the assay on SNB-19 CNS, 43.8 µM; with NCI-H23 lung it was 10.4 µM. Besides, the results for the TGI in the assay with UACC-257 melanoma and in the assay with SN12C renal were 8.51 µM and 5.02 µM, respectively.
`CCCOc1nc(SCCC)nc2c1cnn2-c1ccccc1`: the GI50 in the assay with K-562 leukemia was more than 100 µM; in the assay on EKVX NSCLC, 39.1 µM; in the assay on HOP-62 NSCLC, more than 100 µM; in the assay with IGROV1 ovarian it was more than 100 µM; with SNB-19 CNS, more than 100 µM; with NCI-H23 lung, more than 100 µM. Besides, the GI50 in the assay on UACC-257 melanoma and in the assay with SN12C renal was more than 100 µM in each case. In addition, the TGI in the assay with K-562 leukemia, in the assay on EKVX NSCLC, in the assay on HOP-62 NSCLC, in the assay on IGROV1 ovarian, in the assay with SNB-19 CNS and in the assay with NCI-H23 lung was more than 100 µM in each case. Moreover, the TGI in the assay on UACC-257 melanoma and in the assay with SN12C renal was more than 100 µM each time.
On to `CN(C(=O)c1ccncc1)c1ccccc1`, for which the TGI in the assay with K-562 leukemia, in the assay on EKVX NSCLC, in the assay with HOP-62 NSCLC, in the assay with IGROV1 ovarian, in the assay with SNB-19 CNS and in the assay on NCI-H23 lung was more than 100 µM each time. In addition, the TGI with UACC-257 melanoma and with SN12C renal was more than 100 µM each time.
